In ChEMBL document CHEMBL1201862, “PubChem BioAssay data set” (2004):
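Tested at 5 concentrations; 48 h exposure; 96-well plates; endpoints linearly interpolated, else capped at highest concentration. Here, GI50 denotes the concentration required for 50% inhibition of growth.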 The source made the active and inactive calls. Cut-off read from the data, not from the text of the source: active = GI50 up to about 1.1 µM and inactive = higher.

Legend:
Assay in all cases: inhibition of tumour cell growth, NCI panel, 48 h
[1] = test system: DU-145
[2] = test system: TK-10
[3] = test system: K562
[4] = test system: A498
[5] = test system: M14
[6] = test system: MDA-MB-231
[7] = test system: T47D
[8] = test system: RXF 393
[9] = test system: HL-60
[10] = test system: OVCAR-3
[11] = test system: SK-OV-3
[12] = test system: BT-549
[13] = test system: MDA-N
[14] = test system: OVCAR-8
[15] = test system: SF-539
[16] = test system: COLO 205
[17] = test system: A549
[18] = test system: MDA-MB-435
[19] = test system: NCI-H226

Measured: GI50

CCOC(=O)C1CC(C(=O)c2ccccc2)N2c3ccccc3-c3ccccc3C12 (centres undefined)
inactive: [1] > 100 µM | [2] > 100 µM | [3] 31.6 µM | [4] > 100 µM | [5] 26.4 µM | [6] 41.7 µM | [7] 23.6 µM | [8] 29.9 µM | [9] 10.7 µM | [10] 30 µM | [11] > 100 µM | [12] 57.3 µM | [13] > 100 µM | [14] 33.8 µM | [15] > 100 µM | [16] 30.2 µM | [17] 73.6 µM | [18] 86.7 µM | [19] > 100 µM

O=[N+]([O-])c1ccc(Cl)c(CNc2ncnc3c2ncn3C2CCCCO2)c1 (centres undefined)
inactive: [1] 29.1 µM | [2] 31 µM | [3] 31.4 µM | [4] 12.4 µM | [5] 28.2 µM | [6] 32.9 µM | [7] 55.3 µM | [8] 14.9 µM | [9] 26.8 µM | [10] 34.3 µM | [11] 36.5 µM | [12] 41.2 µM | [13] 12.7 µM | [14] 53.6 µM | [15] 22.8 µM | [16] 42.2 µM | [17] 41.7 µM | [18] 13.9 µM | [19] 43.2 µM

CCCCCCCCCCCCCCCCCCNc1ccn(C2OC(COP(=O)(O)OCC3OC(n4cc(C)c(=O)[nH]c4=O)CC3F)C(O)C2O)c(=O)n1 (centres undefined)
inactive: [1] 11.4 µM | [2] 3.08 µM | [3] 8.55 µM | [4] 13.8 µM | [5] 8.17 µM | [6] 10.7 µM | [7] 7.38 µM | [8] 1.67 µM | [9] 5.46 µM | [10] 7.24 µM | [11] 8.63 µM | [12] 5.19 µM | [13] 8.15 µM | [14] 8.51 µM | [15] 9.46 µM | [16] 3.34 µM | [17] 11.2 µM | [18] 7.91 µM | [19] 37.8 µM

O=C(O)CN1CCNCCN(CC(=O)O)CC1
inactive: [1] > 100 µM | [2] 8.2 µM | [3] 3.76 µM | [4] 3.42 µM | [5] 25.7 µM | [6] > 34 µM | [7] > 100 µM | [8] 13.6 µM | [9] 3.08 µM | [10] 6.49 µM | [11] 38.4 µM | [12] > 100 µM | [13] 11.4 µM | [14] 2.63 µM | [15] 13 µM | [16] 2.01 µM | [17] 14.8 µM | [18] 11.6 µM | [19] 9.93 µM

Cc1cccc(/N=N/c2ccc(O)c(CN(C)C)c2)c1
inactive: [1] > 10 µM | [2] 22.9 µM | [3] 3.33 µM | [4] 18.1 µM | [5] 27.4 µM | [6] 5.6 µM | [7] 11.5 µM | [8] 29 µM | [9] 23.4 µM | [10] 17.2 µM | [11] 41.7 µM | [12] 17.2 µM | [13] 27.3 µM | [14] 21.3 µM | [15] 18.2 µM | [16] 13.2 µM | [17] 32.4 µM | [18] 15.2 µM | [19] 30.9 µM

S=P(C1CCCCC1)(C1CCCCC1)C(c1cccnc1)N1CCCC1 (centres undefined)
inactive: [1] 16.1 µM | [2] 18.5 µM | [3] 21.2 µM | [4] 27.7 µM | [5] 18.4 µM | [6] 18.6 µM | [7] 31.9 µM | [8] 18.6 µM | [9] 18.1 µM | [10] 92.5 µM | [11] 81.8 µM | [12] 18.5 µM | [13] 20.1 µM | [14] 23.8 µM | [15] 16.7 µM | [16] 18.9 µM | [17] 17.8 µM | [18] 18.4 µM | [19] 19.4 µM
